Measurements reported in PubChem BioAssay (NCI).
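Tested at 5 concentrations; 48 h exposure; 96-well plates; endpoints linearly interpolated, else capped at highest concentration. GI50 = concentration required for 50% inhibition of growth. TGI is the concentration that stops growth completely.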

Columns and labels:
Experiment in all cases: NCI-60 cell line screen, 48 h
[1] = system: K-562 leukemia
[2] = system: A498 renal
[3] = system: SF-539 CNS
[4] = system: KM12 colon
[5] = system: MDA-MB-231 breast
[6] = system: HT29 colon
[7] = system: A549 NSCLC
[8] = system: HL-60(TB) leukemia
[9] = system: HCC-2998 colon
[10] = system: RXF 393 renal
[11] = system: TK-10 renal
[12] = system: NCI/ADR-RES ovarian
[13] = system: UACC-62 melanoma
[14] = system: CCRF-CEM leukemia
[15] = system: CAKI-1 renal
[16] = system: SK-MEL-2 melanoma
[17] = system: U251 CNS
[18] = system: SR leukemia
[19] = system: UO-31 renal
[20] = system: MDA-MB-435
[21] = system: 786-0 renal
[22] = system: MOLT-4 leukemia
[23] = system: OVCAR-5 ovarian
[24] = system: SK-MEL-28 melanoma
[25] = system: NCI-H522 lung
[26] = system: SK-MEL-5 melanoma
[27] = system: LOX IMVI melanoma
[28] = system: DU-145 prostate
[29] = system: SF-295 CNS
[30] = system: BT-549 breast
[31] = system: SN12C renal
[32] = system: SNB-75 CNS
[33] = system: UACC-257 melanoma
[34] = system: OVCAR-8 ovarian
[35] = system: HOP-92 NSCLC
[36] = system: T-47D breast
[37] = system: IGROV1 ovarian
[38] = system: NCI-H460 lung
[39] = system: OVCAR-3 ovarian
[40] = system: SW-620 colon
[41] = system: HCT-116 colon
[42] = system: M14 melanoma
[43] = system: HCT-15 colon
[44] = system: SNB-19 CNS
[45] = system: EKVX NSCLC
[46] = system: HOP-62 NSCLC
[47] = system: COLO 205 colon
[48] = system: SF-268 CNS
[49] = system: ACHN renal
[50] = system: HS 578T breast
[51] = system: NCI-H226 lung
[52] = system: MCF7 breast
[53] = system: OVCAR-4 ovarian
[54] = system: SK-OV-3 ovarian
[55] = system: RPMI-8226 leukemia
[56] = system: PC-3 prostate

Structure (SMILES): COC(=O)c1ccc(C2SC(C)C(=O)N2NC(=O)C(O)c2ccccc2)cc1 (configuration not stated)
- GI50 [1]: > 100 µM
- TGI [1]: > 100 µM
- GI50 [2]: > 100 µM
- TGI [2]: > 100 µM
- GI50 [3]: > 100 µM
- TGI [3]: > 100 µM
- GI50 [4]: > 100 µM
- TGI [4]: > 100 µM
- GI50 [5]: > 100 µM
- TGI [5]: > 100 µM
- GI50 [6]: > 100 µM
- TGI [6]: > 100 µM
- GI50 [7]: > 100 µM
- TGI [7]: > 100 µM
- GI50 [8]: > 100 µM
- TGI [8]: > 100 µM
- GI50 [9]: > 100 µM
- TGI [9]: > 100 µM
- GI50 [10]: > 100 µM
- TGI [10]: > 100 µM
- GI50 [11]: > 100 µM
- TGI [11]: > 100 µM
- GI50 [12]: > 100 µM
- TGI [12]: > 100 µM
- GI50 [13]: > 100 µM
- TGI [13]: > 100 µM
- GI50 [14]: > 100 µM
- TGI [14]: > 100 µM
- GI50 [15]: > 100 µM
- TGI [15]: > 100 µM
- GI50 [16]: > 100 µM
- TGI [16]: > 100 µM
- GI50 [17]: > 100 µM
- TGI [17]: > 100 µM
- GI50 [18]: > 100 µM
- TGI [18]: > 100 µM
- GI50 [19]: > 100 µM
- TGI [19]: > 100 µM
- GI50 [20]: > 100 µM
- TGI [20]: > 100 µM
- GI50 [21]: > 100 µM
- TGI [21]: > 100 µM
- GI50 [22]: > 100 µM
- TGI [22]: > 100 µM
- GI50 [23]: > 100 µM
- TGI [23]: > 100 µM
- GI50 [24]: > 100 µM
- TGI [24]: > 100 µM
- GI50 [25]: > 100 µM
- TGI [25]: > 100 µM
- GI50 [26]: > 100 µM
- TGI [26]: > 100 µM
- GI50 [27]: > 100 µM
- TGI [27]: > 100 µM
- GI50 [28]: > 100 µM
- TGI [28]: > 100 µM
- GI50 [29]: > 100 µM
- TGI [29]: > 100 µM
- GI50 [30]: > 100 µM
- TGI [30]: > 100 µM
- GI50 [31]: > 100 µM
- TGI [31]: > 100 µM
- GI50 [32]: > 100 µM
- TGI [32]: > 100 µM
- GI50 [33]: > 100 µM
- TGI [33]: > 100 µM
- GI50 [34]: > 100 µM
- TGI [34]: > 100 µM
- GI50 [35]: > 100 µM
- TGI [35]: > 100 µM
- GI50 [36]: > 100 µM
- TGI [36]: > 100 µM
- GI50 [37]: > 100 µM
- TGI [37]: > 100 µM
- GI50 [38]: > 100 µM
- TGI [38]: > 100 µM
- GI50 [39]: > 100 µM
- TGI [39]: > 100 µM
- GI50 [40]: > 100 µM
- TGI [40]: > 100 µM
- GI50 [41]: > 100 µM
- TGI [41]: > 100 µM
- GI50 [42]: > 100 µM
- TGI [42]: > 100 µM
- GI50 [43]: > 100 µM
- TGI [43]: > 100 µM
- GI50 [44]: > 100 µM
- TGI [44]: > 100 µM
- GI50 [45]: > 100 µM
- TGI [45]: > 100 µM
- GI50 [46]: > 100 µM
- TGI [46]: > 100 µM
- GI50 [47]: > 100 µM
- TGI [47]: > 100 µM
- GI50 [48]: > 100 µM
- TGI [48]: > 100 µM
- GI50 [49]: > 100 µM
- TGI [49]: > 100 µM
- GI50 [50]: > 100 µM
- TGI [50]: > 100 µM
- GI50 [51]: > 100 µM
- TGI [51]: > 100 µM
- GI50 [52]: > 100 µM
- TGI [52]: > 100 µM
- GI50 [53]: > 100 µM
- TGI [53]: > 100 µM
- GI50 [54]: > 100 µM
- TGI [54]: > 100 µM
- GI50 [55]: > 100 µM
- TGI [55]: > 100 µM
- GI50 [56]: > 100 µM
- TGI [56]: > 100 µM
